The values below come from US20250186442A1, “Obicetrapib and Ezetimibe Combination Treatment and Fixed Dose Pharmaceutical Compositions” (NewAmsterdam Pharma B.V., priority 2022, published 2025).

For data set [1] the following is noted: healthy volunteers; single doses up to 150 mg and multiple doses up to 25 mg/day for 21 days; cited from earlier work.
The nature of data set [2]: Solubility in water. The format is physicochemical. Conditions: in water at 20° C. The source says:
Solubility is especially challenging with obicetrapib. […] It would be desirable to have a solid form of obicetrapib that would deliver a larger amount of obicetrapib.

Data set [3] has as its system ApoA1. The conditions noted are these: TA-8995-03; 10 mg daily dose, mild dyslipidemia; cited from earlier work.
Data set [4] concerns critical physiological systems. The conditions noted are these: doses up to 300 mg/kg in rats; cited from earlier work.
The test system of data set [5] is HDL-C. Conditions: TA-8995-03; 10 mg daily dose, mild dyslipidemia; cited from earlier work.
Data set [6] can be described thus: ROSE2 phase 2b clinical trial - safety and tolerability (adverse events). Conditions: All Randomized Participants; obicetrapib 10 mg (N = 39), obicetrapib 10 mg + ezetimibe 10 mg (N = 40). The class given is in vivo, human. On the procedure:
The exploratory objectives of this study include the following: • To evaluate the effect of obicetrapib 10 mg+ezetimibe 10 mg combination therapy and obicetrapib 10 mg monotherapy, when used as an adjunct to high-intensity statin therapy, on non-high-density lipoprotein cholesterol (non-HDL-C), very low-density lipoprotein cholesterol (VLDL-C), HDL-C, TG, ApoE, Lp(a), and HDL-ApoE at Day 84; • To evaluate the effect of obicetrapib 10 mg+ezetimibe 10 mg combination therapy and obicetrapib 10 mg monotherapy, when used as an adjunct to high-intensity statin therapy, on the proportion of participants achieving predefined LDL-C targets at Day 84; • To assess the mean trough plasma levels of obicetrapib 10 mg+ezetimibe 10 mg combination therapy and obicetrapib 10 mg monotherapy at steady state on Days 28, 84, and 112; and • To evaluate the safety and tolerability profiles of obicetrapib 10 mg+ezetimibe 10 mg combination therapy and obicetrapib 10 mg monotherapy, when used as an adjunct to high-intensity statin therapy, assessed by clinical laboratory values and incidence of AEs.
The safety and tolerability profile of obicetrapib 10 mg, both in combination with ezetimibe 10 mg and as monotherapy, will be assessed by clinical laboratory assessments (chemistry and hematology), vital signs, physical examinations, and the incidence of AEs.
An AE can therefore be any unfavorable and/or unintended sign (including an abnormal laboratory finding), symptom, or disease temporally associated with the use of an investigational medicinal product, whether or not related to the investigational medicinal product. All AEs, including observed or volunteered problems, complaints, or symptoms, are to be recorded on the appropriate eCRF.
AEs, which include clinical laboratory assessment variables, will be monitored and documented from the time of first dose of study treatment until completion of Visit 5. Participants should be instructed to report any AE that they experience to the Investigator, whether or not they think the event is due to study drug. Beginning at the date of the first dose of study treatment, Investigators should make an assessment for AEs at each visit and record the event on the appropriate AE eCRF.
The Investigator will assess the severity (intensity) of each AE as mild, moderate, or severe, and will also categorize each AE as to its potential relationship to study drug using the categories of yes or no.
• Mild—An event that is easily tolerated and generally not interfering with normal daily activities. • Moderate—An event that is sufficiently discomforting to interfere with normal daily activities. • Severe—An event that is incapacitating with inability to work or perform normal daily activities.
An AE or adverse reaction is considered serious if, in the view of either the Investigator or Sponsor, it results in any of the following outcomes: • Death; • A life-threatening AE;
The Safety Population will include all participants who receive at least 1 dose of any study drug. Treatment classification will be based on the actual treatment received. The Safety Population will be the primary population used for the safety analyses.

Data set [7] has as its target T1, P-glycoprotein (Homo sapiens, UniProt P08183).
T1 construct: endogenous in cells; host or cells: study subjects in vivo (clinical study)
Conditions: TA-8995-05; cited from earlier work.

Data set [8] relates to Lp(a). The conditions noted are these: TA-8995-06; following 12 weeks of treatment; cited from earlier work.

T1 sequence (P08183 whole entry): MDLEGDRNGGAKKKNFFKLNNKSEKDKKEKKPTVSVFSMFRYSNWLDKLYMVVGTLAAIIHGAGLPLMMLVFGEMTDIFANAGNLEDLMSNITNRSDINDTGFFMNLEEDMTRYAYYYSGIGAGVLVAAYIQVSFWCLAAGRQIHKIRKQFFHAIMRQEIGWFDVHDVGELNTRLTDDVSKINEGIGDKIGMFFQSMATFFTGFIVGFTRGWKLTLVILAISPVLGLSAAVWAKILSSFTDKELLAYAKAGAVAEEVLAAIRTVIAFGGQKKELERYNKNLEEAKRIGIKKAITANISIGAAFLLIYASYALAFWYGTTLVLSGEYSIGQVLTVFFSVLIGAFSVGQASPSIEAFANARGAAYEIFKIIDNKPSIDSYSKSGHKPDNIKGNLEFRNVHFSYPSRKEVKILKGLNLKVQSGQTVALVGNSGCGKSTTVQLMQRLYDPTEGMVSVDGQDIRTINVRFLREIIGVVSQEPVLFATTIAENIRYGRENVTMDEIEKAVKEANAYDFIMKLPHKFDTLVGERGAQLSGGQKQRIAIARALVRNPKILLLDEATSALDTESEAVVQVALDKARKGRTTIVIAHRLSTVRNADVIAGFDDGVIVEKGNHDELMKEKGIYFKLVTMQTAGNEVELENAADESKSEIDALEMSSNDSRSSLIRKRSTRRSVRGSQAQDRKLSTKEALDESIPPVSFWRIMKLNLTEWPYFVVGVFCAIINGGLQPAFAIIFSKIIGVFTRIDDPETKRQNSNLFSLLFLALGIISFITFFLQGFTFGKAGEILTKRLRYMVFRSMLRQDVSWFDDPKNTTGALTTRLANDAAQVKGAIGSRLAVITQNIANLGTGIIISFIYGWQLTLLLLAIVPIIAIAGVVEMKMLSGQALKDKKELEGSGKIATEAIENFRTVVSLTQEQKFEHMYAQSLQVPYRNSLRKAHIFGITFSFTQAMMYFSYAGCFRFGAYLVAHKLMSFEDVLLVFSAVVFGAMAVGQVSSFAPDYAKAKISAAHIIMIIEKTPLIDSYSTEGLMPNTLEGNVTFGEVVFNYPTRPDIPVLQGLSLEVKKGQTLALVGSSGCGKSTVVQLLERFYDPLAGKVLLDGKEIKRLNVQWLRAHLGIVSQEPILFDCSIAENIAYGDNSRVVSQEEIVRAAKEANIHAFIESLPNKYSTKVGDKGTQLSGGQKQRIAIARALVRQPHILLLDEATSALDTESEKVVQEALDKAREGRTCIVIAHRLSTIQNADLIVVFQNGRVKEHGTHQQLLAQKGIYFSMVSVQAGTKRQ

In general, solubility refers to how much of the substance goes into solution per volume. Take `CCOC(=O)N1c2ccc(C(F)(F)F)cc2[C@@H](N(Cc2cc(C(F)(F)F)cc(C(F)(F)F)c2)c2ncc(OCCCC(=O)O)cn2)C[C@H]1CC` [Obicetrapib, {4-[(2-{[3,5-bis(trifluoromethyl)benzyl][(2R,4S)-1-(ethoxycarbonyl)-2-ethyl-6-(trifluoromethyl)-1,2,3,4-tetrahydroquinolin-4-yl]amino}pyrimidin-5-yl)oxy]butanoic acid}]: the tolerability entry in data set [1] is “generally well tolerated”. This compound registered a solubility in data set [2] of less than 100 µg/mL. Moreover, in data set [3], the ApoA1 increase is recorded as 63.4%. The “adverse effect on critical physiological systems” value in data set [4] is listed as “no adverse effect”. In data set [5], the HDL-C efflux capacity entry is recorded as “significant increase” and the HDL-C increase was 179.0%. Moreover, in data set [6], the “Primary reason for early study discontinuation: ADVERSE EVENT, (%)” value is reported as “(2.6) %” and the “Primary reason for treatment discontinuation: ADVERSE EVENT, (%)” value was “(5.1) %”. Moreover, in data set [7], the “effect on P-glycoprotein activity” value was “no significant effect”. The “Lp(a) levels” value in data set [8] is reported as “statistically significant reduction”.
